Earlier results as cited in patent US7128928B2, “Ophthalmic formulation with novel gum composition” (Pharmacia Corporation, priority 2002, dated 2006).

Tested on: infective gram-positive bacteria

For `CC(=O)NC[C@H]1CN(c2ccc(N3CCOCC3)c(F)c2)C(=O)O1` [linezolid], the MIC90 is given as “about 4 μg/ml”.
